By IC50 is commonly meant the concentration needed to halve the response being measured. Read a high IC50 as weaker potency.

The results in this text go back to article PMC8880313, “Discovery of Novel Andrographolide Derivatives as Antiviral Inhibitors against Human Enterovirus A71” (Pharmaceuticals, 2022).

In assay [1] the test system is CV-A6. In words: Post-treatment assay, antiviral spectrum. Type of assay: cell-based, Coxsackievirus A6. The protocol: We were also interested in the antiviral potential of ZAF-47 against other Enteroviruses. As such, we performed post-treatment assay on RD cells infected with other Enteroviruses such as CV-A16, CV-A6, Echo7, CV-B5, CV-A24 and EV-D68.
To determine the inhibitory profiles of the hits, post treatment assay was performed. Seeded 24-well plates, with 1.5 × 10^5 RD cells per well, were incubated overnight at 37 °C with 5% CO2. The seeded cells were infected with EV-A71 (100 µL per well, MOI = 1) for 1 h at 37 °C with 5% CO2 and then rinsed with 1 mL of PBS twice. Different concentrations of the hits were used to treat the infected cells for 12 h at 37 °C with 5% CO2. At 12 hpi, the plates were frozen and thawed for 2 cycles (−80°C; 37 °C) before collection of supernatants to measure the viral titres via viral plaque assay.
Measurement of the viral titres from collected supernatants was derived from viral plaque assays. To do this, 24-well plates, seeded with 2.4 × 10^5 RD cells per well, were used in plaque assays for EV-A71, EV-D68, Echo7, CV-A6, CV-A16 and CV-A24 while 24-well plates, seeded with 1.2 × 10^5 Vero cells per well, were used in plaque assays for CV-B5. Seeded cells were incubated overnight at 37 °C with 5% CO2. […] Subsequent formation of viral plaques was counted manually to quantify the viral titre in PFU/mL […]

Assay [2] has as its system replication-competent EV-A71 RNA replicon. The experiment in a line: Nano-luciferase reporter assay, replication-competent replicon. Type of assay: cell-based, human enterovirus A71 (EV-A71). The settings on record: RD cells, 12 h; ZAF-47 different concentrations, GuHCl 1 mM. The protocol: To identify specifically which of these two intrinsically linked processes that ZAF-47 inhibits, we transfected RD cells with EV-A71 RNA replicons that were either replication-competent or replication-defective and subsequently treated them with different concentrations of ZAF-47 for 12 h before detecting for luminescence. Both forms of replicons were previously established and validated. The replication-competent replicon is capable of self-replicating as it contains an intact 3D region that encodes for 3D polymerase (3D^pol) responsible for RNA replication (Figure 4c). […] In contrast, the replication-defective replicon contains a 3D region with 159 nucleotide deletion which would produce a non-functional 3D protein and impair RNA replication (Figure 4c). As such, cells containing the replication-defective replicon express luciferase upon IRES translation of the original replicons only. The transfected cells were also treated with negative control, DMSO and positive controls, guanidine hydrochloride (GuHCl) and cycloheximide (CHX), a RNA replication-specific inhibitor [50] and a general translation inhibitor [51] respectively.
Seeded 96-well plates, with 2 × 10^4 RD cells per well, were incubated overnight at 37 °C with 5% CO2. […]
A general note: A reporter such as luciferase makes a cellular process visible.

Assay [3] concerns EV-A71 Passage 21. In words: Post-treatment assay on EV-A71 passaged 21 times with ZAF-47 (resistant mutant generation). Type of assay: cell-based, human enterovirus A71 (EV-A71). The note with it: supernatant from Passage 21, MOI = 1, RD cells. The method, then: Unfortunately, we were unable to obtain any resistant mutants as the viral titre for ZAF-47-treated remained lower than that of the controls at Passage 21. […] As a result, we hypothesize that ZAF-47 possibly targets host factor/s associated with EV-A71 RNA replication which makes it harder to generate resistant mutants.
Seeded 24-well plates, with 1.5 × 10^5 RD cells per well, were incubated overnight at 37 °C with 5% CO2. After which, the cells were subjected to EV-A71 infection (200 µL per well, MOI = 1) for 1 h before treatment with 800 µL of ZAF-47 at final concentration of 10 µM for 12 h at 37 °C with 5% CO2. Treatment with reduced serum DMEM and 0.1% DMSO functioned as negative and vehicle controls respectively. Upon 12 hpi, the supernatant was collected for viral plaque assay as well as to infect (200 µL) another seeded plate.

`CC(=O)OC[C@]1(C)C(=O)CC[C@@]2(C)C(C/C=C3/C(=O)OC[C@@H]3Oc3cccc4cccnc34)=C(C)CC[C@@H]21` [ZAF-47, (14β)-(8′-Quinolinoxy)-3-ketone-9-dehydro-17-hydro-19-acetoxy–andrographolide]: the viral titre entry in assay [1] (10 µM, CV-A6-infected RD cells) is listed as “reducing the viral titres of the above-listed enteroviruses significantly”. Moreover, the IC50 in assay [1] (CVA6, CV-A6, Enterovirus A, drug treatment duration 96 h, RD cells) was determined as 3.16 µM. For the same compound, in assay [2], the “luminescence, replication-competent replicon” value was “significant decrease in luminescence in a dose-dependent manner”. For the same compound, the “inhibition of passaged virus” value in assay [3] is listed as “still capable of inhibiting the passaged virus dose-dependently”.
